These are literature values, as cited in US20230083525A1, “NOVEL COMPOSITION FOR REDUCING STRESS DISORDERS” (SOCIETE DES PRODUITS NESTLE S.A., priority 2019, published 2023).

Structures are written as SMILES.

The conditions of this data set: value used to convert plasma AUC to production in the colon.

On to `CC(=O)O` [acetate], for which the systemic availability is 36%. With `CCCC(=O)O` [butyrate], the systemic availability is on record as 2%.
